For 1 molecule, IC50 results are on record in ChEMBL document CHEMBL3638722, “Inhibitors of cytochrome P450” (2015).

A word on the IC50: it is the point on the concentration scale where inhibition reaches its midpoint. The low end stands for inhibition by little substance, the high end for a need for much substance.

The data set addresses Cytochrome P450 3A4 (Homo sapiens, UniProt P08684). Kind of data set: For testosterone hydroxylase activity the final microsomal protein concentration was 0.5 mg/mL, the substrate concentration was 50 uM and the LC-MS internal standard was D7-labeled 6beta -hydroxytestosterone.

Where “and” joins values, the source holds several entries; their conditions need not be identical. Equal values may be shown once.

Chain of Cytochrome P450 3A4 (P08684 whole entry): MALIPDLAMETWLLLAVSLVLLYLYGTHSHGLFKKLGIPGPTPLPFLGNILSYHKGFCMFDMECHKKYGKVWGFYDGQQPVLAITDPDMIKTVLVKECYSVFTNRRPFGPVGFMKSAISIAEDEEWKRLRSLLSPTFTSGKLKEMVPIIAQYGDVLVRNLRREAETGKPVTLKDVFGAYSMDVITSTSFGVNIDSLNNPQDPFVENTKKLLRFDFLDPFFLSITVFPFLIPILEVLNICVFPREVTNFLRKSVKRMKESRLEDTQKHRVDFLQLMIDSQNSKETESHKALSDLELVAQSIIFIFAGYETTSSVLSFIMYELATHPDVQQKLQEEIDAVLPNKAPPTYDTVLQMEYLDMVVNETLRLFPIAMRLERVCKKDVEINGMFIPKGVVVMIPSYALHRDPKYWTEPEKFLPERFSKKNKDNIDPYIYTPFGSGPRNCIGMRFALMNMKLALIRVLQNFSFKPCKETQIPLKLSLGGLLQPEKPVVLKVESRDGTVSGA

As for `CC(C)c1nc(CN(C)C(=O)NC2(C(=O)N[C@H](CC[C@H](Cc3ccccc3)NC(=O)OCc3cncs3)Cc3ccccc3)CCNCC2)cs1`, the IC50 was 0.15 µM and 0.34 µM.
